From patent publication US10562878B2, “Cycloalkylamines as monoamine reuptake inhibitors” (Sunovion Pharmaceuticals Inc., priority 2006, dated 2020)

Assays:
[1] = biological target: human serotonin transporter (Homo sapiens (Human), UniProt P31645); experiment: Serotonin functional uptake assay, recombinant human transporter in HEK-293 cells; format: cell-based; details: Human serotonin transporter uptake; read-out: hSERT IC50
[2] = biological target: human dopamine transporter (Homo sapiens (Human), UniProt Q01959); experiment: Dopamine functional uptake assay, recombinant human transporter in CHO-K1 or HEK293 cells; format: cell-based; details: read-out: hDAT IC50
Sequence of human dopamine transporter (Q01959 whole entry): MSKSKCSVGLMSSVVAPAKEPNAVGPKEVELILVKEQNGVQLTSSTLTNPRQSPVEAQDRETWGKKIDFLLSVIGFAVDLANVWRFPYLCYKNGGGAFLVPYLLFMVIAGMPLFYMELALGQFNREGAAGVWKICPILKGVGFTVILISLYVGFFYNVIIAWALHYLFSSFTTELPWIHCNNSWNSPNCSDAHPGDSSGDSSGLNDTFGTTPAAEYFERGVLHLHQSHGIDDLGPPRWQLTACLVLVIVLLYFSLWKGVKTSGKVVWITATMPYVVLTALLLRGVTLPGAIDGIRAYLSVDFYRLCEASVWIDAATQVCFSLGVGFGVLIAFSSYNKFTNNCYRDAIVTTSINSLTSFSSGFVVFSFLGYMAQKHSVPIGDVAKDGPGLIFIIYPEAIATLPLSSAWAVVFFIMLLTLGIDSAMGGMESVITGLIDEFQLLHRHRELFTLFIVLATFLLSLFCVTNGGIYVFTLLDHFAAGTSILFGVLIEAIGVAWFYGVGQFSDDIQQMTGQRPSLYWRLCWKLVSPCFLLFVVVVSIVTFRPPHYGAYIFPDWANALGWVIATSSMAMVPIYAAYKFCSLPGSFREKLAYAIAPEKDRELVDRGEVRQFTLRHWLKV

Sequence of human serotonin transporter (P31645 whole entry): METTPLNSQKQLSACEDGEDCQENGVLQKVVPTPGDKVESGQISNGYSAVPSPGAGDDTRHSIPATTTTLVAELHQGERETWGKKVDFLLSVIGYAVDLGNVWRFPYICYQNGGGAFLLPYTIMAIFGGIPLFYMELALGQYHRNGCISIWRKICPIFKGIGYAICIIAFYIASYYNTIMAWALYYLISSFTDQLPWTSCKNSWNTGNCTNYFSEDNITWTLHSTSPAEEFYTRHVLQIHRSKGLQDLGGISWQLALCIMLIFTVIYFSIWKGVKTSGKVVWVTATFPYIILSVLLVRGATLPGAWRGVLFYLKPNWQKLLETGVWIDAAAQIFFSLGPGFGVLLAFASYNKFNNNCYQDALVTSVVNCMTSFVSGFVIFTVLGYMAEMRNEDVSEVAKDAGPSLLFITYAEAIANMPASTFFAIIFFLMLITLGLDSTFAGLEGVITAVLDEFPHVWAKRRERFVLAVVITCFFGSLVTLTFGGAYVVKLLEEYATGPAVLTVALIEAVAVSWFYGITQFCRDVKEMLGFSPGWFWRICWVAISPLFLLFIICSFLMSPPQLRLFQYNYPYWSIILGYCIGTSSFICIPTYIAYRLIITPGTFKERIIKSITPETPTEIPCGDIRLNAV

| Structure (SMILES) | IC50 [1] [nM] | IC50 [2] [nM] |
| --- | --- | --- |
| CNC[C@@]1(c2ccc(OC(F)(F)F)cc2)CCCC[C@H]1O (single isomer, unassigned) [145 E1, cis-2-((Methylamino)methyl)-2-(4-(trifluoromethoxy)phenyl) cyclohexanol] | 75 | 4730 |
| CNC[C@@]1(c2ccc(OC(F)(F)F)cc2)CCCC[C@H]1O (single isomer, unassigned) [145 E2, cis-2-((Methylamino)methyl)-2-(4-(trifluoromethoxy)phenyl) cyclohexanol] | 220 | 6520 |
| CN(C)C[C@@]1(c2ccc(Cl)c(Cl)c2)CCCC[C@H]1O (single isomer, unassigned) [152 E1, cis-2-(3,4-dichlorophenyl)-2-((dimethylamino)methyl)cyclohexanol] | 405 | […] |
| CN(C)C[C@@]1(c2ccc(Cl)c(Cl)c2)CCCC[C@H]1O (single isomer, unassigned) [152 E2, cis-2-(3,4-dichlorophenyl)-2-((dimethylamino)methyl)cyclohexanol] | 77 | […] |
| CN(C)C[C@]1(c2ccc(Cl)c(Cl)c2)CCCC[C@H]1O (single isomer, unassigned) [153 E1, trans-2-(3,4-dichlorophenyl)-2-((dimethylamino)methyl)cyclohexanol] | 17 | […] |
| CN(C)C[C@]1(c2ccc(Cl)cc2)CCCC[C@H]1O (single isomer, unassigned) [154 E1, trans-2-(4-chlorophenyl)-2-((dimethylamino)methyl)cyclohexanol] | 2170 | 795 |
| CN(C)C[C@]1(c2ccc(Cl)cc2)CCCC[C@H]1O (single isomer, unassigned) [154 E2, trans-2-(4-chlorophenyl)-2-((dimethylamino)methyl)cyclohexanol] | 439 | 888 |
| COc1ccc([C@@]2(CN(C)C)CCCC[C@H]2O)cc1 (single isomer, unassigned) [156 E1, trans-2-((dimethylamino)methyl)-2-(4-methoxyphenyl)cyclohexanol] | 76 | 1310 |
| COc1ccc([C@@]2(CN(C)C)CCCC[C@H]2O)cc1 (single isomer, unassigned) [156 E2, trans-2-((dimethylamino)methyl)-2-(4-methoxyphenyl)cyclohexanol] | 653 | 4000 |
| CN(C)C[C@@]1(c2ccc(Cl)c(F)c2)CCCC[C@H]1O (single isomer, unassigned) [157 E1, Cis-2-(4-chloro-3-fluorophenyl)-2-((dimethylamino)methyl)cyclohexanol] | 1300 | 575 |
| CN(C)C[C@@]1(c2ccc(Cl)c(F)c2)CCCC[C@H]1O (single isomer, unassigned) [157 E2, Cis-2-(4-chloro-3-fluorophenyl)-2-((dimethylamino)methyl)cyclohexanol] | 290 | 849 |
| CN(C)C[C@]1(c2ccc(Cl)c(F)c2)CCCC[C@H]1O (single isomer, unassigned) [158 E1, Trans-2-(4-chloro-3-fluorophenyl)-2-((dimethylamino)methyl)cyclohexanol] | 8440 | 945 |
| CN(C)C[C@]1(c2ccc(Cl)c(F)c2)CCCC[C@H]1O (single isomer, unassigned) [158 E2, Trans-2-(4-chloro-3-fluorophenyl)-2-((dimethylamino)methyl)cyclohexanol] | 2990 | 5020 |
| CN(C)C[C@@]1(c2ccc(C(F)(F)F)cc2)CCCC[C@H]1O (single isomer, unassigned) [159 E1, cis-2-((dimethylamino)methyl)-2-(4-(trifluoromethyl)phenyl)cyclohexanol] | 1260 | 3800 |
| CN(C)C[C@@]1(c2ccc(C(F)(F)F)cc2)CCCC[C@H]1O (single isomer, unassigned) [159 E2, cis-2-((dimethylamino)methyl)-2-(4-(trifluoromethyl)phenyl)cyclohexanol] | 42 | 2310 |
